What is called EC50 is the concentration needed to bring the measured effect to its halfway point.

In data set [1] the test system is HIV-IIIb. The experiment in a line: Test A: Antiviral Assay in MT4 Cells. Type of data set: cell-based, HIV-1. The note with it: Human immunodeficiency virus 1, IIIB, MT4, 120 h.
Method: 1 mL Aliquots of MT4 cells were pre-infected for 3 hours at 37° C. with 25 μL of cell growth medium (mock-infected) or a fresh 1:250 dilution of an HIV-IIIb concentrated ABI stock (0.004 m.o.i.). Infected and uninfected cells were diluted in cell growth media and 35 μL (2000 cells) was added to each well of the assay plates.
Assay plates were then maintained in a humidified, 5% CO2 incubator at 37° C. After 5 days of incubation, 25 μL of 2× concentrated CellTiter-Glo™ Reagent (catalog #G7573, Promega Biosciences, Inc., Madison, WI) was added to each well of the assay plate. Cell lysis was carried out by incubating at room temperature for 10 minutes and then chemiluminescence was read using an Envision plate reader (PerkinElmer).
Data set [2] can be described thus: Atropisomer equilibrium and interconversion in solution. Type of data set: physicochemical. The note with it: rotation along C—C bond between atropisomers.
In data set [3] the test system is Human Liver Hepatocytes. The experiment in a line: Test D: Metabolic Stability in Cultured Human Liver Hepatocytes. It counts as in vitro ADME. Conditions: pooled cryopreserved human hepatocytes, […] radiolabelled compound, 1 million cells/mL, 0-6 hours; calculated from stability data.
Method: Test D. Metabolic Stability in Cultured Human Liver Hepatocytes
The final hepatocyte concentration was 1 million cells/mL. The hepatocyte/compound reaction mixture was dissolved in InVitroGRO™ KHB buffer (catalog #Z99074, BioreclamationIVT, Inc., Baltimore, MD) at pH 7.4. The incubations were performed in duplicate. A cell free control and a positive control were included in the incubations. The incubations were carried out with gentle shaking in a 37° C. incubator under a humid atmosphere of 95% air/5% CO2 (v/v). Aliquots (100 mL) were removed after 0, 1, 3, and 6 hours and added to 200 mL quenching solution that comprised 0.1% (v/v) TFA in 5% water/95% acetonitrile (v/v). The samples were placed on a shaker for 10 min, followed by centrifugation at 3000 g for 30 min. The samples of the supernatant were analyzed on a Dionex HPLC/PerkinElmer Flow Scintillation Analyzer as described below.
The column was a Phenomenex Synergi fusion RP (150×4.6 mm, 4 mm) maintained at 32 degrees Celsius. Mobile Phase A consisted of 0.1% (v/v) TFA in 99% water/1% acetonitrile (v/v). Mobile Phase B consisted of 0.1% (v/v) TFA in 5% water/95% acetonitrile (v/v). […]
Metabolic stability was determined by measuring the change in relative abundance of metabolites and parent over time and calculating from it the rate of disappearance of the parent compound. […]

The compound `Cn1nc(NS(C)(=O)=O)c2c(Cl)ccc(-c3ccc(C#CC(C)(C)O)nc3[C@H](Cc3cc(F)cc(F)c3)NC(=O)Cn3nc(C(F)(F)F)c4c3C(F)(F)[C@@H]3C[C@H]43)c21` [Compound B] gave a concentration giving a half-maximal response (EC50) in data set [1] of 2.99 nM.

`CC(C)(C#Cc1ccc(-c2ccc(Cl)c3c(NS(C)(=O)=O)nn(CC(F)(F)F)c23)c([C@H](Cc2cc(F)cc(F)c2)NC(=O)Cn2nc(C(F)(F)F)c3c2C(F)(F)[C@@H]2C[C@H]32)n1)S(C)(=O)=O` [Compound 1, N—((S)-1-(3-(4-Chloro-3-(methylsulfonamido)-1-(2,2,2-trifluoroethyl)-1H-indazol-7-yl)-6-(3-methyl-3-(methylsulfonyl)but-1-yn-1-yl)pyridin-2-yl)-2-(3,5-difluorophenyl)ethyl)-2-((3bS,4aR)-5,5-difluoro-3-(trifluoromethyl)-3b,4,4a,5-tetrahydro-1H-cyclopropa[3,4]cyclopenta[1,2-c]pyrazol-1-yl)acetamide]: in data set [2], the rotational energy barrier entry is on record as “about 24 kcal/mol”. Further, the “Predicted Human Hepatic Clearance” value in data set [3] was 0.17 mL/min/kg.
